In article PMC6368403, “Identification of a bilirubin receptor that may mediate a component of cholestatic itch” (eLife, 2019):
Values joined by “and” are separate entries in the source; they are usually repeats but may differ in a detail not shown here. Equal entries are not always repeated.

Legend:
MRGPRX4 [1] = molecular target: T1, MRGPRX4 (Homo sapiens, UniProt Q96LA9); experiment: Microscale thermophoresis binding to MRGPRX4; design: microscale thermophoresis response (binding isotherm), mean: unit not given here; details: for microscale thermophoresis response (binding isotherm), mean: mean of n=3, Fig 2-J
T1 construct: expressed in transfected cells
T1 sequence (Q96LA9 whole entry): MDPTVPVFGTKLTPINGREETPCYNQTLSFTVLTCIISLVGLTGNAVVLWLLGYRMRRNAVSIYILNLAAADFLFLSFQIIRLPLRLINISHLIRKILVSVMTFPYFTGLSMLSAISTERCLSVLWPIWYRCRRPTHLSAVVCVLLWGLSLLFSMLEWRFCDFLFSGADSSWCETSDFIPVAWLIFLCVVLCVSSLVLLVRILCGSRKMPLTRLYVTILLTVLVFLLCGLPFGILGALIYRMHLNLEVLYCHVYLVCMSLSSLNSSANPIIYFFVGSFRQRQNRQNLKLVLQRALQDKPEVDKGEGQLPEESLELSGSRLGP
Procedure: (§1) Binding isotherms for MRGPRA1, MRGPRX4, and MRGRPC11 towards various ligands were determined by microscale thermophoresis with the NanoTemper monolith NT.115 instrument ([Duhr and Braun, 2006]). Ligands were pre-incubated with 10 µM of the GFP-tagged receptor of interest for 5 min at room temperature in binding buffer (20 mM Tris and 150 mM NaCl at pH 8.8). Receptors were crudely purified as a membrane fraction from cells stably expressing the receptor ([Vasavda et al., 2017]). Haem metabolites were freshly dissolved in 0.1 M NaOH in dim light and then diluted into assay buffer. Lyophilized BAM8-22 was dissolved in binding buffer. The pH of each ligand was evaluated prior to incubation with a receptor. Samples were loaded into NT.115 Hydrophobic-Treated Capillaries from NanoTemper. Microscale thermophoretic experiments were executed using 20% LED power and 15% MST power. KDs were calculated using the law of mass action with data from three independent experiments. Binding between bilirubin and receptors was evaluated purely thermophoretically, whereas binding between BAM8-22 and MRGPRC11 was evaluated by T-Jump. Samples with dramatic deviations in initial fluorescence were excluded.

MRGPRX4 [2] = molecular target: T1, MRGPRX4; experiment: Ca2+ imaging and concentration-Ca2+ response (EC50) in HEK293 cells expressing MRGPRX4; format: cell-based; details: for Ca2+ response (concentration-response curve): MRGPRX4, triplicate wells (Fig 2I)
Procedure: All cultured cells were maintained in DMEM supplemented with 10% FBS and 1% Penicillin/Streptomycin at 37°C, 5% CO2. All data included were generated from cells tested for mycoplasma and found to be negative. Cells were imaged in calcium imaging buffer (CIB; 10 mM HEPES, 1.2 mM NaHCO3, 130 mM NaCl, 3 mM KCl, 2.5 mM CaCl2, 0.6 mM MgCl2, 20 mM glucose, and 20 mM sucrose at pH 7.4 and 290–300 mOsm). To monitor changes in intracellular [Ca^2+] ([Ca^2+]i), cells were loaded with either Fura 2-AM (HEK293 cells) or Fluo 4-AM (DRG neurons and mast cells) for 30 min in the dark at 37°C in CIB just prior to imaging. With Fura 2-AM, emission at 510 nm was monitored from excitation at both 340 nm and 380 nm. With Fluo 4-AM, emission at 520 nm was monitored from excitation at 488 nm. Cells were identified as responding if the intracellular [Ca^2+] rose by either 50% compared to baseline or 50% compared to the [Ca^2+]i change assayed during addition of 50 mM KCl (neurons only). Damaged, detached, high-baseline, and motion-activated cells were excluded from analysis.
In initial screens, HEK293 cells stably expressing the murine G-protein alpha-subunit Gα15, a unique Gα protein that non-selectively couples a large variety of GPCRs to phospholipase C ^30, were plated on poly-D-lysine-coated coverslips and transiently transfected with constructs encoding the MRGRPR of interest. 12–24 hr later, cells were loaded with the Fura 2-AM. Unless otherwise specified, compounds were perfused into the imaging chamber for approximately thirty seconds after a baseline period was established. Response was then monitored at 5 s intervals for an additional 60 s.
HEK293 cells stably expressing either MRGPRA1, MRGPRX4, and MRGRPC11 were seeded in poly-D-lysine-coated 96-well plates at 10,000 cells/well. Cells were loaded with Fura 2–AM, washed twice, and maintained in CIB. Haem metabolites were freshly dissolved in DMSO in dim light and then diluted into a buffer comprised of 20 mM Tris and 150 mM NaCl at pH 8.8. Potential changes in pH were evaluated prior to each experiment. EC50 values were determined from dose-responses performed in triplicate, repeated 2–4 times. To determine potential antagonism by QWF against bilirubin, cells were treated with varying doses of QWF for 1 min in CIB prior to application of agonist.
HEK293 stable cell lines expressing GFP-tagged MRGPRA3, MRGPRC11, MRGPRD, MRGPRX1, and MRGPRX2 were generated in previously described reports ([Liu et al., 2009]; [Liu et al., 2012]; [McNeil et al., 2015]). Briefly, plasmids containing the receptor of interest were transfected into HEK cells using Lipofectamine 3000. After 3 days, cells were then selected using 0.5 mg/mL G418. After 3 weeks, monoclonal colonies were established and each the highest expressing clones were identified. For this study, Mrgpra1 and MRGPRX4 were inserted into pEGFP-N1 and transfected into HEK293 cells. MRGPR-positive cells were selected using 0.5 mg/mL G418 for three weeks, after which GFP-positive cells were sorted by FACS and monoclonally expanded. Two lines expressing similar levels of MRGPRA1 and MRGPRX4, as measured by GFP fluorescence, were selected for study.

MRGPRA1 = molecular target: T2, MRGPRA1 (Mus musculus, UniProt Q91WW5); experiment: Microscale thermophoresis binding to MRGPRA1; design: Transformed binding isotherm (mean of three experiments): unit not given here; details: for Transformed binding isotherm (mean of three experiments): MRGPRA1 (Fig 2E)
T2 construct: expressed in transfected cells
T2 sequence (Q91WW5 1-304): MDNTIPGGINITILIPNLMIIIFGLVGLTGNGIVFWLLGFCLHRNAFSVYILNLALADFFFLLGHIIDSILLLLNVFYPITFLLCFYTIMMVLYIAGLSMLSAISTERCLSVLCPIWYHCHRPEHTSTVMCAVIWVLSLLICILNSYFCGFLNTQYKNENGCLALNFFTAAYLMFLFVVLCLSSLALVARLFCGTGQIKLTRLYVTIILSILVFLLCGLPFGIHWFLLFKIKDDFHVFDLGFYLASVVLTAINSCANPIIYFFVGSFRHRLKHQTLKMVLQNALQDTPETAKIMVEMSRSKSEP
Procedure: as §1

C=CC1=C(C)/C(=C/c2[nH]c(Cc3[nH]c(/C=C4\NC(=O)C(C)=C4C=C)c(C)c3CCC(=O)NCCS(=O)(=O)O)c(CCC(=O)NCCS(=O)(=O)O)c2C)NC1=O [conjugated bilirubin, bilirubin ditaurate]
microscale thermophoresis response (binding isotherm), mean (MRGPRX4 [1]; [Ligand] 3.05e-8 M): 14.6332 | microscale thermophoresis response (binding isotherm), mean (MRGPRX4 [1]; [Ligand] 6.1e-8 M): -0.3949 | microscale thermophoresis response (binding isotherm), mean (MRGPRX4 [1]; [Ligand] 1.221e-7 M): -3.186 | microscale thermophoresis response (binding isotherm), mean (MRGPRX4 [1]; [Ligand] 2.441e-7 M): 10.7277 | microscale thermophoresis response (binding isotherm), mean (MRGPRX4 [1]; [Ligand] 4.883e-7 M): 1.18 | microscale thermophoresis response (binding isotherm), mean (MRGPRX4 [1]; [Ligand] 9.766e-7 M): 3.799 | microscale thermophoresis response (binding isotherm), mean (MRGPRX4 [1]; [Ligand] 1.9531e-6 M): 8.125 | microscale thermophoresis response (binding isotherm), mean (MRGPRX4 [1]; [Ligand] 3.9063e-6 M): 1.993 | microscale thermophoresis response (binding isotherm), mean (MRGPRX4 [1]; [Ligand] 7.8125e-6 M): 2.933 | microscale thermophoresis response (binding isotherm), mean (MRGPRX4 [1]; [Ligand] 1.5625e-5 M): -0.662 | microscale thermophoresis response (binding isotherm), mean (MRGPRX4 [1]; [Ligand] 3.125e-5 M): 8.64 | microscale thermophoresis response (binding isotherm), mean (MRGPRX4 [1]; [Ligand] 6.25e-5 M): 18.6992 | microscale thermophoresis response (binding isotherm), mean (MRGPRX4 [1]; [Ligand] 0.000125 M): 39.4499 | microscale thermophoresis response (binding isotherm), mean (MRGPRX4 [1]; [Ligand] 0.00025 M): 46.5687 | microscale thermophoresis response (binding isotherm), mean (MRGPRX4 [1]; [Ligand] 0.0005 M): 49.0399 | microscale thermophoresis response (binding isotherm), mean (MRGPRX4 [1]; [Ligand] 0.001 M): 52.0554 | Binding to MRGPRX4 (MRGPRX4 [1]; microscale thermophoresis): lower affinity than unconjugated bilirubin | Calcium response / activation of MRGPRX4-expressing cells (MRGPRX4 [2]): activated MRGPRX4 | Ca2+ response (concentration-response curve) (MRGPRX4 [2]; [Ligand] 3.90625e-6 M): 1.434 and 1.4137 and 1.361 | Ca2+ response (concentration-response curve) (MRGPRX4 [2]; [Ligand] 7.8125e-6 M): 1.454 and 1.384 and 1.354 | Ca2+ response (concentration-response curve) (MRGPRX4 [2]; [Ligand] 1.5625e-5 M): 1.439 and 1.34 and 1.332 | Ca2+ response (concentration-response curve) (MRGPRX4 [2]; [Ligand] 3.125e-5 M): 1.623 and 1.449 and 1.378 | Ca2+ response (concentration-response curve) (MRGPRX4 [2]; [Ligand] 6.25e-5 M): 1.761 and 1.61 and 1.52 | Ca2+ response (concentration-response curve) (MRGPRX4 [2]; [Ligand] 0.000125 M): 1.756 and 1.629 and 1.666 | Ca2+ response (concentration-response curve) (MRGPRX4 [2]; [Ligand] 0.00025 M): 1.735 and 1.736 and 1.6528 | Ca2+ response (concentration-response curve) (MRGPRX4 [2]; [Ligand] 0.0005 M): 1.775 and 1.779 and 1.74 | Transformed binding isotherm (mean of three experiments) (MRGPRA1; [Ligand] 1.221e-7 M): 8.864 | Transformed binding isotherm (mean of three experiments) (MRGPRA1; [Ligand] 2.441e-7 M): 12.0246 | Transformed binding isotherm (mean of three experiments) (MRGPRA1; [Ligand] 4.883e-7 M): -13.1442 | Transformed binding isotherm (mean of three experiments) (MRGPRA1; [Ligand] 9.766e-7 M): 10.2399 | Transformed binding isotherm (mean of three experiments) (MRGPRA1; [Ligand] 1.9531e-6 M): -8.006 | Transformed binding isotherm (mean of three experiments) (MRGPRA1; [Ligand] 3.9063e-6 M): -10.5584 | Transformed binding isotherm (mean of three experiments) (MRGPRA1; [Ligand] 7.8125e-6 M): -9.562 | Transformed binding isotherm (mean of three experiments) (MRGPRA1; [Ligand] 1.5625e-5 M): -5.789 | Transformed binding isotherm (mean of three experiments) (MRGPRA1; [Ligand] 3.125e-5 M): -4.24 | Transformed binding isotherm (mean of three experiments) (MRGPRA1; [Ligand] 6.25e-5 M): 37.7812 | Transformed binding isotherm (mean of three experiments) (MRGPRA1; [Ligand] 0.000125 M): 5.5559 | Transformed binding isotherm (mean of three experiments) (MRGPRA1; [Ligand] 0.00025 M): 6.134 | Transformed binding isotherm (mean of three experiments) (MRGPRA1; [Ligand] 0.0005 M): 25.273 | Transformed binding isotherm (mean of three experiments) (MRGPRA1; [Ligand] 0.001 M): 43.2348 | Binding to MRGPRA1 (MRGPRA1; microscale thermophoresis): lower affinity than unconjugated bilirubin
